Reference: patent US11365204B2, “Substituted dihydrothienopyrimidines and their use as phosphodiesterase inhibitors” (UNION therapeutics A/S, priority 2017, dated 2022)

What was measured:
[1] = molecular target: human PDE4D catalytic domain (UniProt no. Q08499 [S380-L740]) (Homo sapiens (Human), UniProt Q08499); assay: PDE4 assay (TR-FRET, cAMP hydrolysis); type: biochemical; conditions: read-out: PDE4 IC50 range
Protocol: The human PDE4D catalytic domain (UniProt no. Q08499 [S380-L740]) was incubated with a mixture of non-labelled cAMP (cyclic adenosine monophosphate) and fluorescein amidite (FAM) conjugated cAMP and titrated test or reference compound.
Following brief incubation the enzymatic reaction was stopped by addition of binding buffer containing nanoparticles with immobilized trivalent metal ions capable of binding 1) AMP phospho groups and 2) terbium (Tb) donor fluorophores. Subsequent excitation of the Tb donor triggered time-resolved FRET to adjacent FAM acceptor molecules resulting in light emission. In the presence of a PDE4 inhibitor, AMP generation was reduced resulting in a lower fluorescence signal. The cAMP phosphodiester is not bound by the detection system.
Results were expressed as IC50 values (nM) calculated from inhibition curves where the TR-FRET signal was normalized to Tb fluorescence intensity and the negative (DMSO vehicle) and positive (10 microM a PDE4 inhibitor reference compound) controls.

[2] = tested on: Human peripheral blood mononuclear cells (PBMC); assay: TNF-α release from LPS-stimulated PBMC; type: cell-based; conditions: Lipopolysaccharide 1 microg/ml, 18 hours, AlphaLISA, read-out: TNF-α IC50 range
Protocol: Human peripheral blood mononuclear cells (PBMC) were isolated from fresh buffy coats by density centrifugation using lymphoprep tubes (Medinor). Frozen PBMC's were washed in serum free assay buffer (RPMI1640 with 25 mM HEPES, 1% pen/strep, […] L glutamine, 0.5% human serum albumin) and living cells counted. Lipopolysaccharide (1 microg/ml; SIGMA) was added to the cells which were then transferred to 384 well tissue culture plates ([…]) containing titrated test compounds. The cells were incubated for 18 hours at 37° C. in serum free assay buffer and the level of TNFalpha in the supernatant was quantitated by AlphaLISA (PerkinElmer) by measuring fluorescence intensity at 615 nm.
Results were expressed as IC50 values calculated from inhibition curves using as controls the secretion in LPS stimulated wells and the secretion in cells incubated with 10 microM of a PDE4 inhibitor reference compound.

Sequence of human PDE4D catalytic domain (Q08499 380-740): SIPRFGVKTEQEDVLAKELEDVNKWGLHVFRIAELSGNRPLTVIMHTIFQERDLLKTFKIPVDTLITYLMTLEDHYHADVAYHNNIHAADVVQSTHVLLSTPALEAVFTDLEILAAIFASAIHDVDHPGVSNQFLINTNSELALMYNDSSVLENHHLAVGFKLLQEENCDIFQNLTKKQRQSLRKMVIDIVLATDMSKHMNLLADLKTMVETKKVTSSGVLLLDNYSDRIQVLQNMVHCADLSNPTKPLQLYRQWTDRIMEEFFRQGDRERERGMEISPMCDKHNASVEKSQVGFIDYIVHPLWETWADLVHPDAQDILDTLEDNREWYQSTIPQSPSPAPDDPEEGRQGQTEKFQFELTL

CN(c1nc(N2CC(OC(=O)C3CCSCC3)C2)nc2c1[S+](O)CC2)C1CCOCC1 (stereo not shown) [Example 40, [1-[4-[methyl(tetra-hydropyran-4-yl)amino]-5-oxido-6,7-dihydro-thieno[3,2-d]pyrimidin-5-ium-2-yl]azetidin-3-yl] tetrahydrothiopyran-4-carboxylate] was tested, and the IC50 [1] was less than 100 nM and the IC50 [2] was less than 100 nM.

Work on CC(C)S(=O)(=O)c1ccc(C(=O)OC2CN(c3nc4c(c(N(C)C5CCOCC5)n3)[S+]([O-])CC4)C2)cc1 (stereo not shown) [Example 60, [1-[4-[methyl(tetra-hydropyran-4-yl)amino]-5-oxido-6,7-dihydro-thieno[3,2-d]pyrimidin-5-ium-2-yl]azetidin-3-yl] 4-isopropylsulfonyl-benzoate] yielded an IC50 [1] of less than 100 nM and an IC50 [2] of less than 100 nM.

In the case of CC(=O)N1CC[C@@H](Nc2nc(N3CC(OC(=O)C4CCOCC4)C3)nc3c2[S@+](O)CC3)C1 [Example 75, [1-[4-[[(3R)-1-acetyl-pyrrolidin-3-yl]amino]-5-oxido-6,7-dihydro-thieno[3,2-d]pyrimidin-5-ium-2-yl]azetidin-3-yl] tetrahydropyran-4-carboxylate], the IC50 [1] is reported as greater than 500 nM and the IC50 [2] is reported as greater than 500 nM.

For CN(c1nc(N2CC(OC(=O)c3cscn3)C2)nc2c1[S+]([O-])CC2)C1CCOCC1 (stereo not shown) [Example 5, [1-[4-[Methyl(tetrahydropyran-4-yl)amino]-5-oxido-6,7-dihydrothieno[3,2-d]pyrimidin-5-ium-2-yl]azetidin-3-yl] thiazole-4-carboxylate], the IC50 [1] was less than 100 nM and the IC50 [2] was less than 100 nM.

CN(c1nc(N2CC(OC(=O)c3ccc(F)cc3)C2)nc2c1[S+]([O-])CC2)C1CCOCC1 (stereo not shown) [Example 28, [1-[4-[methyl(tetra-hydropyran-4-yl)amino]-5-oxido-6,7-dihydro-thieno[3,2-d]pyrimidin-5-ium-2-yl]azetidin-3-yl] 4-fluorobenzoate] gave an IC50 [1] of less than 100 nM and an IC50 [2] of less than 100 nM.

With CCN(c1nc(N2CC(OC(=O)c3cnsc3)C2)nc2c1[S+]([O-])CC2)C1CCOCC1 (stereo not shown) [Example 7, [1-[4-[Ethyl(tetrahydropyran-4-yl)amino]-5-oxido-6,7-dihydrothieno[3,2-d]pyrimidin-5-ium-2-yl]azetidin-3-yl] isothiazole-4-carboxylate] the IC50 [1] was 100 to 500 nM and the IC50 [2] was 100 to 500 nM.

CN(C)C(=O)N1CCC(C(=O)OC2CN(c3nc4c(c(N(C)C5CCOCC5)n3)[S+](O)CC4)C2)CC1 (stereo not shown) [Example 55, [1-[4-[methyl(tetra-hydropyran-4-yl)amino]-5-oxido-6,7-dihydro-thieno[3,2-d]pyrimidin-5-ium-2-yl]azetidin-3-yl] 1-(dimethylcarbamoyl)-piperidine-4-carboxylate] gave an IC50 [1] of less than 100 nM and an IC50 [2] of less than 100 nM.

In the case of CN(c1nc(N2CC(OC(=O)[C@H]3CC[C@@H](O)CC3)C2)nc2c1[S+](O)CC2)C1CCOCC1 (stereo partly shown) [Example 38, [1-[4-[methyl(tetra-hydropyran-4-yl)amino]-5-oxido-6,7-dihydro-thieno[3,2-d]pyrimidin-5-ium-2-yl]azetidin-3-yl] 4-hydroxycyclohexane-carboxylate], the IC50 [1] is reported as less than 100 nM and the IC50 [2] is reported as less than 100 nM.

Cc1ccccc1C(=O)OC1CN(c2nc3c(c(N(C)C4CCOCC4)n2)[S+]([O-])CC3)C1 (stereo not shown) [Example 24, [1-[4-[methyl(tetra-hydropyran-4-yl)amino]-5-oxido-6,7-dihydro-thieno[3,2-d]pyrimidin-5-ium-2-yl]azetidin-3-yl] 2-methylbenzoate] showed an IC50 [1] of less than 100 nM and an IC50 [2] of less than 100 nM.

CCn1cc(C(=O)OC2CN(c3nc4c(c(N(C)C5CCOCC5)n3)[S+]([O-])CC4)C2)cn1 (stereo not shown) [Example 32, [1-[4-[methyl(tetra-hydropyran-4-yl)amino]-5-oxido-6,7-dihydro-thieno[3,2-d]pyrimidin-5-ium-2-yl]azetidin-3-yl] 1-ethylpyrazole-4-carboxylate] showed an IC50 [1] of less than 100 nM and an IC50 [2] of less than 100 nM.

Work on CCS(=O)(=O)c1cccc(C(=O)OC2CN(c3nc4c(c(N(C)C5CCOCC5)n3)[S+]([O-])CC4)C2)c1 (stereo not shown) [Example 56, [1-[4-[methyl(tetra-hydropyran-4-yl)amino]-5-oxido-6,7-dihydro-thieno[3,2-d]pyrimidin-5-ium-2-yl]azetidin-3-yl] 3-ethylsulfonylbenzoate] yielded an IC50 [1] of less than 100 nM and an IC50 [2] of less than 100 nM.

CCCN(c1nc(N2CC(OC(=O)c3cscn3)C2)nc2c1[S+]([O-])CC2)C1CCOCC1 (stereo not shown) [Example 10, [1-[4-[Propyl(tetrahydropyran-4-yl)amino]-5-oxido-6,7-dihydrothieno[3,2-d]pyrimidin-5-ium-2-yl]azetidin-3-yl] thiazole-4-carboxylate] gave an IC50 [1] greater than 500 nM and an IC50 [2] greater than 500 nM.

COCCC(=O)OC1CN(c2nc3c(c(N(C)C4CCOCC4)n2)[S+]([O-])CC3)C1 (stereo not shown) [Example 13, [1-[4-[methyl(tetra-hydropyran-4-yl)amino]-5-oxido-6,7-dihydro-thieno[3,2-d]pyrimidin-5-ium-2-yl]azetidin-3-yl] 3-methoxypropanoate] was tested, and the IC50 [1] was 100 to 500 nM and the IC50 [2] was 100 to 500 nM.

With Cc1nc(C(=O)OC2CN(c3nc4c(c(N(C)C5CCOCC5)n3)[S+]([O-])CC4)C2)cs1 (stereo not shown) [Example 35, [1-[4-[methyl(tetra-hydropyran-4-yl)amino]-5-oxido-6,7-dihydro-thieno[3,2-d]pyrimidin-5-ium-2-yl]azetidin-3-yl] 2-methylthiazole-4-carboxylate] the IC50 [1] was less than 100 nM and the IC50 [2] was less than 100 nM.

CN(c1nc(N2CC(OC(=O)c3cscn3)C2)nc2c1[S+]([O-])CC2)C1CCOCC1 (stereo in doubt) [Example 6, [1-[(5R)-4-[Methyl(tetrahydropyran-4-yl)amino]-5-oxido-6,7-dihydrothieno[3,2-d]pyrimidin-5-ium-2-yl]azetidin-3-yl] thiazole-4-carboxylate] gave an IC50 [1] of less than 100 nM and an IC50 [2] of less than 100 nM.

Molecule COc1ccc(C(=O)OC2CN(c3nc4c(c(N(C)C5CCOCC5)n3)[S+]([O-])CC4)C2)cc1 (stereo not shown) [Example 42, [1-[4-[methyl(tetra-hydropyran-4-yl)amino]-5-oxido-6,7-dihydro-thieno[3,2-d]pyrimidin-5-ium-2-yl]azetidin-3-yl] 4-methoxybenzoate] has an IC50 [1] of less than 100 nM and an IC50 [2] of less than 100 nM.

COc1cccc(C(=O)OC2CN(c3nc4c(c(N(C)C5CCOCC5)n3)[S+](O)CC4)C2)c1 (stereo not shown) [Example 43, [1-[4-[methyl(tetra-hydropyran-4-yl)amino]-5-oxido-6,7-dihydro-thieno[3,2-d]pyrimidin-5-ium-2-yl]azetidin-3-yl] 3-methoxybenzoate] showed an IC50 [1] of less than 100 nM and an IC50 [2] of less than 100 nM.

In the case of O=C(OC1CN(c2nc3c(c(NC4CC5(COC5)C4)n2)[S+]([O-])CC3)C1)c1cnsc1 (stereo in doubt) [Example 68, [1-[(5R)-4-(6-oxaspiro-[3.3]heptan-2-ylamino)-5-oxido-6,7-dihydrothieno-[3,2-d]pyrimidin-5-ium-2-yl]azetidin-3-yl] isothia-zole-4-carboxylate], the IC50 [1] is reported as less than 100 nM and the IC50 [2] is reported as less than 100 nM.

In the case of CN(c1nc(N2CC(OC(=O)c3cccnc3)C2)nc2c1[S@+](O)CC2)C1CCOCC1 [Example 63, [1-[(5R)-4-[methyl-(tetrahydropyran-4-yl)amino]-5-oxido-6,7-dihydrothieno[3,2-d]pyrimidin-5-ium-2-yl]azetidin-3-yl] pyridine-3-carboxylate], the IC50 [1] is reported as 100 to 500 nM and the IC50 [2] is reported as less than 100 nM.

O=C(OC1CN(c2nc3c(c(NC4CCOCC4)n2)[S@@+]([O-])CC3)C1)c1cscn1 [Example 2, [1-[(5R)-5-Oxido-4-(tetrahydropyran-4-ylamino)-6,7-dihydrothieno[3,2-d]pyrimidin-5-ium-2-yl]azetidin-3-yl] thiazole-4-carboxylate] showed an IC50 [1] of less than 100 nM and an IC50 [2] of less than 100 nM.

CN(c1nc(N2CC(OC(=O)C3CCS(=O)(=O)CC3)C2)nc2c1[S+](O)CC2)C1CCOCC1 (stereo not shown) [Example 50, [1-[4-[methyl(tetra-hydropyran-4-yl)amino]-5-oxido-6,7-dihydro-thieno[3,2-d]pyrimidin-5-ium-2-yl]azetidin-3-yl] 1,1-dioxothiane-4-carboxylate] was tested, and the IC50 [1] was 100 to 500 nM and the IC50 [2] was 100 to 500 nM.

CCCN(c1nc(N2CC(OC(=O)c3cnsc3)C2)nc2c1[S+]([O-])CC2)C1CCOCC1 (stereo not shown) [Example 9, [1-[4-[Propyl(tetrahydropyran-4-yl)amino]-5-oxido-6,7-dihydrothieno[3,2-d]pyrimidin-5-ium-2-yl]azetidin-3-yl] isothiazole-4-carboxylate] gave an IC50 [1] greater than 500 nM and an IC50 [2] greater than 500 nM.

In the case of CNC(=O)c1ccc(C(=O)OC2CN(c3nc4c(c(N(C)C5CCOCC5)n3)[S+](O)CC4)C2)cc1 (stereo not shown) [Example 51, [1-[4-[methyl(tetra-hydropyran-4-yl)amino]-5-oxido-6,7-dihydro-thieno[3,2-d]pyrimidin-5-ium-2-yl]azetidin-3-yl] 4-(methylcarbamoyl)-benzoate], the IC50 [1] is reported as less than 100 nM and the IC50 [2] is reported as less than 100 nM.
